Key:
ICR mice [1] = assay: Tail suspension test in mice, administration by gavage; type: in vivo; settings: 3.5 mg/kg/d by gavage for two days; 1 h after administration; over 4 min
Description: In the second day, 1 h after the administration, the tail of mouse (2 cm away from the tip of the tail) was fixed to the connection line of 100 g tension transducer by adhesive plaster, and the mouse was hung upside down, with the head about 15 cm away from the experimental bench, two animals isolated from each other by a cardboard were simultaneously tested for each time. The transducer was connected to the Medlab bio-signals acquisition and processing system, after 2 min of adaption, the result over 4 min was recorded, and the immobility situation was converted into the time(s). The experimental data were expressed as X±SD, and the analysis of variance for the experimental results was carried out by SPSS 11.5 statistical software (purchased from SPSS Inc., USA).

[2] = tested on: rats with chronic stress induced depression model; assay: Body weights of rats with chronic stress induced depression (CUMS); type: in vivo, SD rats
Description: (§1) The gavage was carried out along with the model establishment, once a day, for 21 days. […] Referring to the methods in the literature (Xu Jing, Li Xiaoqiu, Establishment and evaluation of the model of chronic stress induced depression, Chinese Journal of Behavioral Medical Science, 2003, 12(1): 14 16), the model was established (i.e., establishing animal model of anti-depression by means of CUMS): the foot electric shock (voltage: […] (5 minutes), drying at 45° C. (5 minutes), tail nipping (1 min), wet feeding (wet mat), reversed day and night (24 hours), fasting (24 hours), water deprivation (24 hours) were randomly scheduled within 21 days, one kind of stimulations was given for each day, except for the animals of vehicle group, the others were separately caged with free diet, at the room temperature of (24±1)° C., with the relative humidity of (60±10)%. All parameters to be tested were expressed as Mean±SD (X±s), and tested by means of analysis of variance (ANOVA) in SPSS 12.0 software (purchased from SPSS Inc., USA), p<0.05 means that there was a significant difference.

ICR mice [3] = assay: Forced swimming test in mice; type: in vivo; settings: 3.5 mg/kg/d by gavage for two days; 1 h after administration; last 4 min
Description: Each group was administered by gavage at a dose of 0.2 ml/10 g weight, for two days, deionized water was administered to vehicle group.
In the second day, 1 h after the administration, the mice were placed separately into a water cylinder with 20 cm of height, 18 cm of diameter, 10 cm of depth, 23±2° C. of water temperature; observing each for 6 min, after 2 min of adaption, the immobility time over the last 4 min was recorded.
The data was expressed as x±s, analyzed by SPSS 13.0 statistical software by means of One-Way ANOVA test, the homogeneity of variance was tested by LSD and SNK test.

[4] = tested on: rats with chronic stress induced depression model; assay: Jump stair test, chronic stress induced depression; type: in vivo, SD rats; settings: 3.5 mg/kg/day gavage for 21 days, 5 minutes
Description: as §1, with “(60±10)%. […] A wooden platform (height: 5 cm, diameter: 8 cm) was placed into the box at the left back corner. Animals were placed into the response box to adapt to the environment for 3 minutes, and then the box was immediately electrified with […] alternating current, the normal response of the animal which suffered from electric shock was to jump onto the platform in order to avoid such harmful stimulation. Most animals were likely to jump down to the copper railings again or for several times, and then quickly jump back to the platform after suffering from the electric shock, being trained like this for 5 minutes, the times that the rats suffered from the electric shock were designated as error times. The test was carried out again after 24 hours, rats were placed on the platform and the box was charged, timing and recording the error times for 5 minutes.” for “(60±10)%.”

[5] = tested on: noradrenalin in the brain of rat; assay: Noradrenalin in the brain of rat with chronic stress (HPLC-ECD, prefrontal cortex); type: in vivo, SD rats; settings: 3.5 mg/kg/d gavage for 21 days
Description: (§2) After being fed without water for 24 hours, SD rats were administered with 1% aqueous sucrose, the consumption of aqueous sucrose was measured for 1 hour. The rats were randomly divided into six groups (n=12 for each group) according to the consumptions of aqueous sucrose, i.e. vehicle group, model group, positive control group of Fluoroxetine Hydrochloride (2.5 mg/kg/d), high-dose group (14 mg/kg/day), medium-dose group (7 mg/kg/day), and low-dose group (3.5 mg/kg/day) of Albiflorin. The gavage was carried out along with the model establishment, once a day, for 21 days. Each group was administered at a dose of 1.0 ml/100 g weight, and weighed once a week.
(§3) The rats were fed at 6/cage as vehicle group, with normal diets and drinking water, and without any stimulation.
(§4) The rats were fed at 1/cage as the other five groups, and subjected to unpredicted stress stimulations for 21 days, including: swimming in ice water, drying, tail nipping, wet feeding, reversed day and night, fasting, water deprivation and the like. One kind of stimulations was randomly given for each day.
(§5) The animal was executed by decapitation, the brain of it was quickly stripped on the ice, the prefrontal cortex was taken out, then placed into frozen tissue tube after weighting, rapidly frozen with liquid nitrogen, and placed into the refrigerator at −70° C. until test.

[6] = tested on: serotonin in the brain of rat; assay: Serotonin in the brain of rat with chronic stress (HPLC-ECD, prefrontal cortex); type: in vivo, SD rats; settings: 3.5 mg/kg/d gavage for 21 days
Description: as §2, §3, §4, §5

ICR mice [7] = assay: Acute toxicity test of Albiflorin; type: in vivo
Description: SFP level ICR mice were administered with Albiflorin at a dose of 8.4 g/kg, the observation time was 14 days.
The nature and rate of breath, behaviors (especially whether there was any vomit-causing phenomenon), actions, color and tension of fur, abdominal shape, hardness of feces, body weight and the like were observed.

C[C@]12C[C@@H](O)[C@@H]3C[C@@]1(O[C@@H]1O[C@H](CO)[C@@H](O)[C@H](O)[C@H]1O)[C@@]3(COC(=O)c1ccccc1)C(=O)O2 [Albiflorin]
Immobility Time (ICR mice [1]): 83.82 ± 35.099 s | body weights ([2]; 3.5 mg/kg/day gavage, Day 0): 256.83 ± 11.49 g | body weights ([2]; 3.5 mg/kg/day gavage, Day 7): 265.65 ± 11.23 g | body weights ([2]; 3.5 mg/kg/day gavage, Day 14): 270.75 ± 18.15 g | body weights ([2]; 3.5 mg/kg/day gavage, Day 21): 271.07 ± 19.06 g | body weights ([2]; 7 mg/kg/day gavage, Day 0): 250.18 ± 13.45 g | body weights ([2]; 7 mg/kg/day gavage, Day 7): 265.65 ± 12.44 g | body weights ([2]; 14 mg/kg/day gavage, Day 0): 255.84 ± 11.69 g | body weights ([2]; 14 mg/kg/day gavage, Day 7): 268.11 ± 17.50 g | Immobility Time (ICR mice [3]): 44.85 ± 29.695 s | Error times in training period [4]: 2.25 ± 1.42 | Error times in testing period ([4]; after 24 hours): 2.08 ± 1.31 | NA [5]: 174.59 ± 60.35 | 5-HT [6]: 188.43 ± 67.91 | safe dosage as multiple of the clinical dosage (ICR mice [7]; 8.4 g/kg body weight, mice, by gavage): approximately 600 times | body weight compared with the vehicle group (ICR mice [7]; 8.4 g/kg by gavage, Day 7 and Day 14): without significant difference | abnormal symptoms and death (ICR mice [7]; 8.4 g/kg by gavage, observation for 14 days): neither any abnormal symptom nor any death was found | dosage at which still safe (ICR mice [7]; mice, by gavage): 8.4 g/kg body weight
